Reference: patent US9656990B2, “Cathepsin cysteine protease inhibitors” (Merck Sharp & Dohme Corp., priority 2014, dated 2017)

Experiments:
[1] = target: human cathepsin K (UniProt P43236, Y175D/V274L, species not given); assay: Cathepsin K Assay; format: biochemical; settings: IP from dose response curve; Z-Leu-Arg-AMC substrate, pH 5.5; read-out: hrbCat K (IP (nM))
[2] = target: T1, human cathepsin F (Homo sapiens, UniProt Q9UBX1); assay: Cathepsin F Assay; format: biochemical; settings: IP from dose response curve; Z-Phe-Arg-AMC substrate, pH 5.5; read-out: hCat F (IP (nM))
T1 sequence (Q9UBX1 271-484): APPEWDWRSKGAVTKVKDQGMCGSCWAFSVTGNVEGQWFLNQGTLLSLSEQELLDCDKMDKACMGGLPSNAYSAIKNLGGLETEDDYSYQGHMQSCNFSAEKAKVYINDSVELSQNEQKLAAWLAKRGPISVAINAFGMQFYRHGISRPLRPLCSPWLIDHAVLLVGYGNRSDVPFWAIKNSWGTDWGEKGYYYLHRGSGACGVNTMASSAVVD
How it was run: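 Human cathepsin F (10 nM) preincubated 15 min at room temperature with compounds in 50 mM MES pH 5.5, 2.5 mM EDTA, 2.5 mM DTT, 10% DMSO. Z-Phe-Arg-AMC (8 μM) added; AMC release read by fluorescence (Ex 360/Em 460 nm) over 20 min, inhibition fit to dose-response model.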

Structure (SMILES) | IC50 [1] | IC50 [2]
N#CC1(NC(=O)[C@@H]2CCCC[C@H]2c2nn(-c3ccc(C(F)(F)F)nc3)cc2-c2ccc(N3CCS(=O)(=O)CC3)cc2)CC1 [Example 166, (1R,2R)-N-(1-cyanocyclopropyl)-2-(4-(4-(1,1-dioxidothiomorpholino)phen-yl)-1-(6-(trifluoromethyl)pyridin-3-yl)-1H-pyrazol-3-yl)cyclohexanecarboxamide] | 1.31 nM | 428 nM
Cc1ccc(-n2cc(-c3ccc(N4CCS(=O)(=O)CC4)cc3)c([C@@H]3CCCC[C@H]3C(=O)NC3(C#N)CC3)n2)cn1 [Example 167, (1R,2R)-N-(1-cyanocyclopropyl)-2-(4-(4-(1,1-dioxidothiomorpholino)phen-yl)-1-(6-methylpyridin-3-yl)-1H-pyrazol-3-yl)cyclohexanecarboxamide] | 0.66 nM | 602 nM
COc1ccc(-n2cc(-c3ccc(N4CCS(=O)(=O)CC4)cc3)c([C@@H]3CCCC[C@H]3C(=O)NC3(C#N)CC3)n2)cn1 [Example 168, (1R,2R)-N-(1-cyanocyclopropyl)-2-(4-(4-(1,1-dioxidothiomorpholino)phen-yl)-1-(6-methoxypyridin-3-yl)-1H-pyrazol-3-yl)cyclohexanecarboxamide] | 2.4 nM | 763 nM
N#CC1(NC(=O)[C@@H]2CCCC[C@H]2c2nn(-c3cc(F)cnc3F)cc2-c2ccc(N3CCS(=O)(=O)CC3)cc2)CC1 [Example 169, (1R,2R)-N-(1-cyanocyclopropyl)-2-(1-(2,5-difluoropyridin-3-yl)-4-(4-(1,1-dioxidothiomorpholino)phen-yl)-1H-pyrazol-3-yl)cyclohexanecarboxamide] | 3.94 nM | 5670 nM
N#CC1(NC(=O)[C@@H]2CCCC[C@H]2c2nn(-c3cnc(O)nc3)cc2-c2ccc(N3CCS(=O)(=O)CC3)cc2)CC1 [Example 170, (1R,2R)-N-(1-cyanocyclopropyl)-2-(4-(4-(1,1-dioxidothiomorpholino)phen-yl)-1-(2-hydroxypyrimidin-5-yl)-1H-pyrazol-3-yl)cyclohexanecarboxamide] | 1.88 nM | 2530 nM
Cn1cc(-n2cc(-c3ccc(N4CCS(=O)(=O)CC4)cc3)c([C@@H]3CCCC[C@H]3C(=O)NC3(C#N)CC3)n2)cn1 [Example 171, (1R,2R)-N-(1-cyanocyclopropyl)-2-(4-(4-(1,1-dioxidothiomorpholino)phen-yl)-1′-methyl-1′H-[1,4′-bipyrazol]-3-yl)cyclohexanecarboxamide] | 3.38 nM | 2760 nM
